In ChEMBL document CHEMBL1151292, “Antineoplastic activity and cytotoxicity of flavones, isoflavones, and flavanones” (1979):
≈ marks a conversion by molar mass, not a printed value. Calls of active or inactive are those of the source.

Legend:
CCRF S-180 = assay: In vivo antitumor activity against mouse S180 cells; assay type: functional, organism-based
L1210 = assay: In vivo antitumor activity against mouse L1210 cells; assay type: functional, organism-based
[1] = system: Lewis lung carcinoma cell line; assay: In vivo antitumor activity against mouse LLC cells; assay type: functional, organism-based
FV = assay: In vivo antitumor activity against mouse FV cells; assay type: functional, organism-based
KB = assay: Cytotoxicity against human KB cells; assay type: functional; details: read-out: ED50 (the source's name)
CA-755 = assay: In vivo antitumor activity against mouse CA-755 cells; assay type: functional, organism-based
Walker 256 = assay: In vivo antitumor activity against rat Walker 256 cells; assay type: functional, organism-based

Compound | Activity (CCRF S-180) | Activity (L1210) | Activity [1] | Activity (FV) | EC50 (KB) [µg/mL] | Activity (CA-755) | Activity (Walker 256)
O=c1cc(-c2cccc(F)c2)oc2ccccc12 | inactive | inactive | inactive | – | – | – | –
COc1ccc(-c2coc3c(OC)c(OC)c(OC)c(OC)c3c2=O)cc1 | – | – | – | Active | – | – | –
O=c1c(O)c(-c2c(O)cccc2O)oc2ccccc12 | inactive | inactive | – | inactive | > 100 | – | –
COc1c(OC)c(OC)c2c(c1OC)OC(c1ccc(O)cc1)CC2=O (stereo not drawn) | inactive | inactive | – | – | 26 (≈ 72.1 µM) | inactive | –
COc1ccc(-c2cc(=O)c3c(OC)c(OC)c(OC)c(OC)c3o2)c(OC)c1 | inactive | – | inactive | – | 15 (≈ 37.3 µM) | – | –
COc1ccc2c(=O)c(N(S(C)(=O)=O)S(C)(=O)=O)c(-c3ccccc3)oc2c1CN(C)C | inactive | inactive | – | – | > 100 | inactive | –
Nc1c(-c2ccccc2)oc2ccccc2c1=O | inactive | inactive | – | – | > 100 | inactive | –
O=c1cc(-c2ccc(O)cc2)oc2c(O)c(O)c(O)cc12 | – | – | inactive | – | 22 (≈ 76.9 µM) | – | inactive
COc1ccc(-c2cc(=O)c3c(OC)c(OC)c(OC)c(OC)c3o2)cc1OC [NOBILETIN] | – | – | inactive | – | 3 (≈ 7.46 µM) | – | inactive
O=c1cc(-c2ccccc2)oc2ccc(O)cc12 [6-HYDROXYFLAVONE] | inactive | – | Active | – | 18 (≈ 75.6 µM) | – | inactive
COc1cc(O)c2c(=O)c(O[C@@H]3O[C@H](CO[C@@H]4O[C@@H](C)[C@H](O)[C@@H](O[C@@H]5O[C@@H](C)[C@H](O)[C@@H](O)[C@H]5O)[C@H]4O)[C@@H](O)[C@H](O)[C@H]3O)c(-c3ccc(O)c(O)c3)oc2c1 | inactive | inactive | inactive | – | 8.5 (≈ 11 µM) | inactive | –
O=C1/C(=N\O)C(c2ccccc2)Oc2ccccc21 (stereo not drawn) | inactive | inactive | – | – | 35 (≈ 138 µM) | inactive | –
COc1c(OC)c(OC)c2c(=O)cc(-c3ccc(OC(C)=O)cc3)oc2c1OC | inactive | – | inactive | – | 3 (≈ 7.49 µM) | inactive | –
COC1(O)C(=O)c2ccccc2OC1(OC)c1ccc(C)cc1 (stereo not drawn) | – | inactive | – | – | – | – | inactive
COc1ccc2c(c1)C(=O)C(O)(OC)C(OC)(c1ccccc1)O2 (stereo not drawn) | – | inactive | – | – | – | – | inactive
O=c1cc(-c2ccc(F)cc2)oc2ccccc12 | inactive | inactive | inactive | – | – | – | –
CCOC(=O)c1oc2cc(O)cc(O)c2c(=O)c1-c1ccc(OC)cc1 | inactive | inactive | Active | – | 21 (≈ 58.9 µM) | – | –
C[C@@H]1O[C@@H](OC[C@H]2O[C@@H](Oc3c(-c4ccc(O)c(O)c4)oc4cc(O)cc(O)c4c3=O)[C@H](O)[C@@H](O)[C@@H]2O)[C@H](O)[C@H](O)[C@H]1O | inactive | inactive | inactive | – | – | inactive | Active
O=C1CC(c2ccccc2)Oc2ccc(Cl)cc21 (stereo not drawn) | inactive | inactive | – | – | 1 (≈ 3.87 µM) | inactive | –
COc1ccc(-c2coc3cc(OC)c(OC)c(OC)c3c2=O)cc1 | inactive | – | – | Active | 34 (≈ 99.3 µM) | – | –

Compound | Activity (CCRF S-180) | Activity (L1210) | Activity [1] | Activity (FV) | EC50 (KB) [µg/mL] | Activity (CA-755) | Activity (Walker 256)
COc1ccc(C2(OC)Oc3ccccc3C(=O)C2(O)O)cc1 (stereo not drawn) | – | inactive | – | – | – | – | inactive
CCOc1ccc(-c2coc3cc(C)c(OCC)c(C)c3c2=O)cc1 | – | – | – | inactive | – | – | –
COc1ccc(-c2cc(=O)c3ccccc3o2)c(OC)c1OC | inactive | inactive | inactive | – | 13 (≈ 41.6 µM) | inactive | –
CC(=O)Nc1c(-c2ccccc2)oc2ccccc2c1=O | inactive | inactive | – | – | > 100 | inactive | –
O=C1c2ccc(O)cc2OC(c2ccc(O)c(O)c2)C1O (stereo not drawn) | inactive | inactive | inactive | – | – | inactive | –
COc1ccc(-c2oc3cc(OC)ccc3c(=O)c2O)cc1 | – | inactive | inactive | – | – | inactive | –
COc1cc2oc(-c3ccc(O)cc3)cc(=O)c2c(OC)c1OC | inactive | inactive | – | – | 19 (≈ 57.9 µM) | inactive | –
O=c1c(-c2ccc(O)cc2)coc2cc(O)cc(O)c12 [GENISTEIN] | inactive | inactive | – | – | 6.7 (≈ 24.8 µM) | inactive | –
O=c1cc(-c2ccccc2)oc2cccc(O)c12 [5-HYDROXYFLAVONE] | inactive | – | inactive | – | 20 (≈ 83.9 µM) | – | Active
C[C@@H]1O[C@@H](Oc2c(-c3cc(O)c(O)c(O)c3)oc3cc(O)cc(O)c3c2=O)[C@H](O)[C@H](O)[C@H]1O | inactive | inactive | inactive | – | 8.3 (≈ 17.9 µM) | inactive | –
O=c1c(-c2ccc3c(c2)OCO3)coc2cc(O)ccc12 | – | inactive | – | – | – | – | inactive
O=c1cc(-c2ccccc2)oc2cc(O)ccc12 | inactive | inactive | inactive | – | – | – | –
CC(=O)Oc1cc(O)c2c(=O)c(OC(C)=O)c(-c3ccc(OC(C)=O)c(OC(C)=O)c3)oc2c1 | inactive | inactive | – | – | 22 (≈ 46.8 µM) | inactive | –
COc1ccc(-c2cc(=O)c3c(OC)c(OC)c(OC)cc3o2)cc1 | inactive | inactive | – | – | 27 (≈ 78.9 µM) | inactive | –
COc1ccc(OC)c(-c2cc(=O)c3c(OC)c(OC)c(OC)c(OC)c3o2)c1 | inactive | – | – | Active | 4 (≈ 9.94 µM) | – | –
O=c1cc(-c2ccccc2)oc2cc(O)cc(O)c12 [CHRYSIN] | – | inactive | – | – | 13 (≈ 51.1 µM) | – | inactive
COc1cc(C)cc2c1OC(c1ccccc1)CC2=O.Cl (stereo not drawn) | inactive | inactive | – | – | 26 | inactive | –
COc1cc2occ(-c3ccc(O)cc3)c(=O)c2c(OC)c1O | – | – | – | inactive | – | – | –
O=c1c(O)c(-c2ccc(O)c(O)c2)oc2cc(O)cc(O)c12 [QUERCETIN] | – | – | – | – | 25 (≈ 82.7 µM) | – | Active
COc1c(OC)c(OC)c2c(=O)cc(-c3ccc4c(c3)OCO4)oc2c1OC | – | – | – | – | – | – | inactive

Compound | Activity (CCRF S-180) | Activity (L1210) | Activity [1] | Activity (FV) | EC50 (KB) [µg/mL] | Activity (CA-755) | Activity (Walker 256)
COc1cc(O)c2c(=O)c(OC)c(-c3ccc(OC)c(OC)c3)oc2c1 [RETUSIN] | inactive | inactive | – | – | 41 (≈ 114 µM) | inactive | –
O=C1c2c(O)cc(O)cc2OC(c2ccc(O)c(O)c2)C1O (stereo not drawn) [TAXIFOLIN] | inactive | – | – | – | 40 (≈ 131 µM) | inactive | inactive
COc1ccc(C2(OC)Oc3cc(OC)ccc3C(=O)C2(O)OC)cc1 (stereo not drawn) | – | inactive | – | – | – | – | inactive
CCOC1(O)C(=O)c2ccccc2OC1(OCC)c1ccccc1 (stereo not drawn) | – | inactive | – | – | – | – | inactive
O=c1cc(-c2ccccc2)oc2ccc(F)cc12 | inactive | – | inactive | – | – | – | –
COc1cc(-c2cc(=O)c3c(OC)c(OC)c(OC)c(OC)c3o2)cc(OC)c1OC [HEPATAMETHOXYFLAVONE] | inactive | inactive | inactive | – | 0.5 (≈ 1.16 µM) | inactive | –
Cc1oc2cc(O)ccc2c(=O)c1-c1ccccc1Br | inactive | inactive | – | – | 66 (≈ 199 µM) | inactive | –
O=C1CC(c2ccc(O)cc2)Oc2cc(O)cc(O)c21 (stereo not drawn) | inactive | inactive | inactive | – | – | inactive | –
COc1ccccc1-c1cc(=O)c2ccc(OC)c(OC)c2o1 | inactive | inactive | inactive | – | 4 (≈ 12.8 µM) | inactive | –
COc1c(OC)c(OC)c(-c2cc(=O)c3c(OC)c(OC)c(OC)c(OC)c3o2)c(OC)c1OC | – | – | inactive | – | 4 (≈ 8.12 µM) | – | –
O=c1cc(-c2ccccc2F)oc2ccccc12 | inactive | inactive | inactive | – | – | – | –
O=c1cc(-c2cccc([N+](=O)[O-])c2)oc2ccccc12 | inactive | inactive | – | – | 2 (≈ 7.48 µM) | inactive | –
Cc1oc2cc(O)ccc2c(=O)c1-c1ccccc1 | – | inactive | – | – | – | – | inactive
COc1ccc(-c2oc3ccc(C)cc3c(=O)c2O)cc1 | inactive | inactive | inactive | – | 2 (≈ 7.08 µM) | inactive | –
Cl.NC1C(=O)c2ccccc2OC1c1ccccc1 (stereo not drawn) | inactive | inactive | – | – | 3 | inactive | –
COc1ccc2c(c1)C(=O)CC(c1ccccc1OC)O2 (stereo not drawn) | inactive | inactive | – | – | 24 (≈ 84.4 µM) | inactive | –
COc1cc(OC)c(-c2cc(=O)c3c(OC)c(OC)c(OC)c(OC)c3o2)cc1OC | – | – | inactive | – | 13 (≈ 30.1 µM) | – | Active
O=c1c(O)c(-c2ccc(Cl)cc2)oc2ccccc12 | – | inactive | – | – | – | – | inactive
